Results on one molecule are retold here after publication PMC10899790, “A bromodomain-independent mechanism of gene regulation by the BET inhibitor JQ1: direct activation of nuclear receptor PXR” (Nucleic Acids Research, 2023).

Data set [1] addresses T1, PXR LBD (Homo sapiens, UniProt O75469).
T1 construct: pcDNA3-SmBiT-PXR LBD (residues 139–434); expressed in transfected cells; host or cells: HepG2
T1 sequence (O75469 139-434): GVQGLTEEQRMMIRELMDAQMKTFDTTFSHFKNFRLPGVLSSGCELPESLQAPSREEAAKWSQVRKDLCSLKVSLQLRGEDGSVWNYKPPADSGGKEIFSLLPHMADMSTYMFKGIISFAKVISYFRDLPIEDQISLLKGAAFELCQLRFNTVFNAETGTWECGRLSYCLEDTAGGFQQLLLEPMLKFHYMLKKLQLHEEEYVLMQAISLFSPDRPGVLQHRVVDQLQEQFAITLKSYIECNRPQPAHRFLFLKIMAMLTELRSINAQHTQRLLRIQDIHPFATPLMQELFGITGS
T1 sequence (Q15788 621-765 partner limits assumed): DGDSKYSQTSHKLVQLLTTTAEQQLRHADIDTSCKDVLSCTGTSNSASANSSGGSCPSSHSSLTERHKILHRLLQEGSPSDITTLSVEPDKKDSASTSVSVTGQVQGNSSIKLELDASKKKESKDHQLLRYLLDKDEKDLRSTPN
The experiment in a line: Cellular PXR LBD SRC-1 recruitment assay (NanoBiT). To be noted: HepG2, NanoBiT, 30 min; 100 nM T0901317 or 5 μM other compound. The format is cell-based. Here is the method:
Nano Luciferase Binary Technology (NanoBiT) ([33]) was used to assess the interaction of SRC-1 with PXR LBD in HepG2 cells (Supplementary Figure S4). […] The following day, cells were co-transfected with pcDNA3-SmBiT-PXR LBD (100 ng/well) and pcDNA3-LgBiT-SRC-1 (100 ng/well) using Lipofectamine 3000. Empty vector (pcDNA3, 800 ng/well) was used as carrier DNA due to the low amounts of expression plasmids used. […] After 24 h, 5 μl media containing 2.5% DMSO, 5X Nano-Glo Live Cell Substrate from the Nano-Glo Live Cell Assay System (Promega), and 5× concentration of compound was added, resulting in 0.5% DMSO and either 100 nM T0901317 or 5 μM other compound. The plates were incubated for 30 min at RT, and Nano Luciferase activity was then measured with an EnVision microplate reader.

For data set [2], the target named is T2, PXR LBD (Homo sapiens, UniProt O75469).
T2 construct: GST-PXR LBD protein (cat. # PV4841) were purchased from Thermo Fisher Scientific; purchased Thermo Fisher Scientific PV4841
T2 sequence (O75469 146-433 limits assumed): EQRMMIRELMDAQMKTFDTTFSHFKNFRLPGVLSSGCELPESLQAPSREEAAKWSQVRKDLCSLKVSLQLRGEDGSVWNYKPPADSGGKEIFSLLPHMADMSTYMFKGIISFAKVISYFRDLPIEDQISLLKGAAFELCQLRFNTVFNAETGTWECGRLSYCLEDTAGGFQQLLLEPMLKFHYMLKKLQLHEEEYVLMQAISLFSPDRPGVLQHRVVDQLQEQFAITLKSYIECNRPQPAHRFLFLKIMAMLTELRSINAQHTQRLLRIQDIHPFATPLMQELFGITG
Description: TR-FRET PXR LBD NCoR recruitment and release assays. The format is biochemical. To be noted: TR-FRET in the presence of 1 μM SPA70. How it is done:
The TR-FRET PXR LBD NCoR recruitment assay was similarly performed, but with 500 nM FAM-NCoR peptide. Data were normalized using equations (2) and (3) with 10 μM SPA70 in place of T0901317 as the control. For the NCoR release assay, all wells contained 1 μM SPA70 to induce PXR LBD interaction with NCoR, and dose responses of agonists were used to disrupt the PXR LBD/SPA70/NCoR complex. In the release assay, 1 μM SPA70 alone served as the 100% control, and DMSO alone served as the 0% control. NCoR release assay wells contained 0.4% DMSO due to the two-compound addition.

The next data set addresses T3, human PXR (Homo sapiens, UniProt O75469).
T3 sequence (O75469 1-434): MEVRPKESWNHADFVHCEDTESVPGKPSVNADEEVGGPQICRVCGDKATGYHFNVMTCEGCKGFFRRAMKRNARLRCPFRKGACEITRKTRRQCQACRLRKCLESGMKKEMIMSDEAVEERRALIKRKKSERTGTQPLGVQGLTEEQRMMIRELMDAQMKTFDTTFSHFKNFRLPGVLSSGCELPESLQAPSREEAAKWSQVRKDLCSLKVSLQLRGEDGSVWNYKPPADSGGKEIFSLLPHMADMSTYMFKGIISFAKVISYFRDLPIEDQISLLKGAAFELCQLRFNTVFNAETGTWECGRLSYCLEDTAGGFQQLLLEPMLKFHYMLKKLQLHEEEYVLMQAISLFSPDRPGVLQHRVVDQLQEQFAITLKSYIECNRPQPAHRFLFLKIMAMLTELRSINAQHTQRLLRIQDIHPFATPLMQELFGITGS
Description: PXR transactivation assay (CYP3A4-luciferase reporter). How it is done:
Assays were performed similarly as previously described with minor modifications ([30–32]). HepG2 cells (7.5 × 10^5/well) were plated in six-well tissue culture-treated plates. The following day, cells were co-transfected with pGL3-CYP3A4-luc (2 μg/well), pRL-CMV (200 ng/well) and 100 ng/well of either empty vector (pcDNA3), pcDNA3-FLAG-PXR, pCMV6-mPXR or pGL4.53-PGK-PXR using Lipofectamine 3000 (Thermo Fisher Scientific). Twenty-four hours after transfection, cells were trypsinized and suspended in phenol red-free DMEM (Thermo Fisher Scientific) supplemented with 5% charcoal/dextran-treated FBS (HyClone), and 1 × 10^4 cells/well in 25 μl media were added to white 384-well plates. […] After 24 h, the Dual-Glo Luciferase Assay System (Promega) and EnVision microplate reader (PerkinElmer) were used to measure firefly and Renilla luciferase activities. CMV-driven Renilla luciferase was used as an indicator of general transcriptional modulation by the test compounds and is plotted as fold change (FC) relative to DMSO controls. Assays utilizing pGL4.54[luc2/TK], pGL4.53[luc2/PGK], or pGL4.13[luc2/SV40] were similarly performed and normalized. For the PXR-responsive CYP3A4-luciferase reporter, the measured relative light units (RLU) were normalized for each well using equation (1),
RLUT0901317 represents the measured RLU from wells containing 1 μM T0901317. For mPXR assays, 5 μM PCN was used in place of T0901317.

Turning to `Cc1sc2c(c1C)C(c1ccc(Cl)cc1)=N[C@@H](CC(=O)OC(C)(C)C)c1nnc(C)n1-2` [JQ1, (+)-JQ1], the “SRC-1 recruitment to PXR LBD in cells” value on PXR LBD [1] is on record as “JQ1 > birabresib > CPI-203”. Further, the “inhibition of SPA70-mediated NCoR recruitment (NCoR release)” value on PXR LBD [2] is recorded as “inhibited SPA70-mediated NCoR recruitment”. Moreover, the “activation of CYP3A4-luciferase reporter with PXR expressed from a PGK promoter” value on human PXR (HepG2, 24 h, PGK-driven PXR) is listed as “retained activation of the CYP3A4-luciferase reporter”. In addition, at human PXR (human), the “activation of PXR-responsive CYP3A4-luciferase reporter” value was “activated the CYP3A4-luciferase reporter with potency comparable to that of the prototypical PXR agonist rifampicin (Figure 2A) but with slightly reduced efficacy”.
